Experimental data: the supplement of paper PMC10307832

compound: O=C(Nc1cc(C(F)(F)F)cc(C(F)(F)F)c1)c1cc(Cl)ccc1O [IMD-0354] + COc1cccc2cc(-c3nc([C@H]4CC[C@H](C(=O)O)CC4)n4ncnc(N)c34)[nH]c12 [OSI-027] (partner 0.5 µM); experiment: relative viability (nuclei count vs DMSO), 5 days (fraction); higher = more cells survive; settings: first compound 4 µM
Method in brief: (§1)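 Lung cancer cell lines were pin-tool dosed in 1536-well plates on the day after seeding, with either a lone drug or a fixed anchor-drug dose plus five library-drug doses (not always all listed) in √10 steps. Nuclei were counted on 4× images after 5 days. Relative viability is the ratio of treated-well to vehicle-well nuclei counts, with each value a median of duplicate plates.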

In order of falling relative viability:
1. NCI-H2405  0.307
2. NCI-H1648  0.278
3. SW 900  0.248
4. NCI-H441  0.231
5. NCI-H2170  0.231
6. HCC-44  0.215
7. HOP-62  0.204
8. NCI-H1793  0.131

compound: Cc1cnc(CNC(=O)c2c(=O)c3ccc(N4CCCN(C)CC4)nc3n3c2sc2ccccc23)cn1 [CX-5461] + C[C@]1(O)C[C@@H](c2nc(-c3ccc4ccc(-c5ccccc5)nc4c3)c3c(N)nccn32)C1 [Linsitinib] (partner 1 µM); experiment: as above; settings: first compound 0.01 µM
Method in brief: as §1

In order of falling relative viability:
1. SK-LU-1  1.31
2. LCLC-103H  1.14
3. NCI-H596  1.11
4. NCI-H838  1.1
5. HOP-62  1.08
6. NCI-H1395  1.06
7. COR-L 105  1.05
8. NCI-H1793  1.05
9. H3255  1.04
10. NCI-H2087  1.03
11. NCI-H2405  1.03
12. Calu-6  1.02
13. LOU-NH91  1
14. EBC-1  0.988
15. NCI-H1299  0.942
16. NCI-H2085  0.923
17. COR-L23  0.908
18. NCI-H520  0.877
19. EMC-BAC-2  0.843
20. NCI-H358  0.817
21. NCI-H1666  0.787
22. NCI-H1993  0.743
23. HCC-44  0.734
24. NCI-H2126  0.728
25. IA-LM  0.644
26. A549  0.644
27. HCC-366  0.574
28. NCI-H441  0.567
29. NCI-H1703  0.374
30. LK-2  0.363
31. NCI-H727  0.351

same assay, conditions: first compound 0.03162 µM

In order of rising relative viability:
1. NCI-H727  0.276
2. NCI-H441  0.651
3. NCI-H1993  0.681
4. HCC-44  0.681
5. A549  0.712
6. LK-2  0.715
7. NCI-H2126  0.727
8. HCC-366  0.738
9. NCI-H358  0.748
10. HOP-62  0.813
11. IA-LM  0.863
12. NCI-H2405  0.898
13. NCI-H1793  0.913
14. EMC-BAC-2  0.914
15. NCI-H520  0.916
16. COR-L 105  0.93
17. Calu-6  0.952
18. NCI-H1299  0.977
19. NCI-H1666  0.982
20. NCI-H2087  0.999
21. H3255  1.01
22. NCI-H2085  1.03
23. EBC-1  1.04
24. LOU-NH91  1.04
25. NCI-H838  1.05
26. COR-L23  1.05
27. NCI-H596  1.06
28. SK-LU-1  1.11
29. NCI-H1395  1.15
30. LCLC-103H  1.16
31. NCI-H1703  1.22

same assay, conditions: first compound 0.1 µM

In order of falling relative viability:
1. NCI-H596  1.21
2. NCI-H838  1.08
3. COR-L 105  1.08
4. NCI-H1395  1.06
5. EBC-1  1.04
6. NCI-H1299  1.04
7. LOU-NH91  0.999
8. NCI-H2405  0.993
9. Calu-6  0.986
10. NCI-H2087  0.946
11. SK-LU-1  0.945
12. NCI-H1793  0.941
13. H3255  0.935
14. NCI-H520  0.934
15. HOP-62  0.922
16. NCI-H2085  0.911
17. NCI-H1703  0.898
18. LCLC-103H  0.895
19. IA-LM  0.852
20. EMC-BAC-2  0.828
21. NCI-H1993  0.722
22. NCI-H2126  0.71
23. HCC-44  0.685
24. COR-L23  0.651
25. LK-2  0.598
26. HCC-366  0.581
27. A549  0.57
28. NCI-H441  0.487
29. NCI-H358  0.345
30. NCI-H727  0.321

same assay, conditions: first compound 0.3162 µM

In order of rising relative viability:
1. A549  0.122
2. NCI-H1703  0.223
3. NCI-H441  0.288
4. NCI-H358  0.314
5. NCI-H727  0.342
6. HCC-366  0.573
7. NCI-H1395  0.612
8. HCC-44  0.676
9. IA-LM  0.688
10. NCI-H1993  0.712
11. LOU-NH91  0.715
12. NCI-H2126  0.731
13. H3255  0.735
14. NCI-H2087  0.811
15. NCI-H1666  0.82
16. EMC-BAC-2  0.824
17. Calu-6  0.827
18. NCI-H838  0.847
19. COR-L 105  0.852
20. HOP-62  0.858
21. EBC-1  0.859
22. NCI-H520  0.889
23. NCI-H2405  0.897
24. NCI-H1793  0.913
25. SK-LU-1  0.921
26. NCI-H2085  0.952
27. COR-L23  0.969
28. NCI-H1299  1.01
29. NCI-H596  1.15
30. LCLC-103H  1.21

same assay, conditions: first compound 1 µM

In order of rising relative viability:
1. NCI-H727  0.129
2. NCI-H358  0.304
3. IA-LM  0.415
4. NCI-H1703  0.423
5. NCI-H1666  0.459
6. COR-L23  0.472
7. SK-LU-1  0.497
8. Calu-6  0.51
9. LK-2  0.515
10. NCI-H1395  0.583
11. COR-L 105  0.59
12. HCC-366  0.615
13. NCI-H1993  0.643
14. NCI-H2126  0.679
15. NCI-H520  0.701
16. EBC-1  0.753
17. NCI-H2405  0.757
18. EMC-BAC-2  0.815
19. LOU-NH91  0.842
20. NCI-H838  0.859
21. NCI-H2085  0.864
22. H3255  0.988
23. HOP-62  0.997
24. NCI-H2087  1.05
25. NCI-H596  1.1
26. LCLC-103H  1.12
